# In ChEMBL document CHEMBL5653610, “The novel phosphodiesterase 10A inhibitor THPP-1 has antipsychotic-like effects in rat and improves cognition in rat and rhesus monkey” (Neuropharmacology, 2013):
# Active and inactive are the calls of the source. No cut-off for these calls is given here.
# Legend:
# [1] = molecular target: T1, cAMP and cAMP-inhibited cGMP 3',5'-cyclic phosphodiesterase 10A (Rattus norvegicus, UniProt Q9QYJ6); experiment: Inhibition of rat PDE10A2 assessed as inhibition of cAMP hydrolysis by fluorescence polarization assay
# T1 sequence (Q9QYJ6 whole entry): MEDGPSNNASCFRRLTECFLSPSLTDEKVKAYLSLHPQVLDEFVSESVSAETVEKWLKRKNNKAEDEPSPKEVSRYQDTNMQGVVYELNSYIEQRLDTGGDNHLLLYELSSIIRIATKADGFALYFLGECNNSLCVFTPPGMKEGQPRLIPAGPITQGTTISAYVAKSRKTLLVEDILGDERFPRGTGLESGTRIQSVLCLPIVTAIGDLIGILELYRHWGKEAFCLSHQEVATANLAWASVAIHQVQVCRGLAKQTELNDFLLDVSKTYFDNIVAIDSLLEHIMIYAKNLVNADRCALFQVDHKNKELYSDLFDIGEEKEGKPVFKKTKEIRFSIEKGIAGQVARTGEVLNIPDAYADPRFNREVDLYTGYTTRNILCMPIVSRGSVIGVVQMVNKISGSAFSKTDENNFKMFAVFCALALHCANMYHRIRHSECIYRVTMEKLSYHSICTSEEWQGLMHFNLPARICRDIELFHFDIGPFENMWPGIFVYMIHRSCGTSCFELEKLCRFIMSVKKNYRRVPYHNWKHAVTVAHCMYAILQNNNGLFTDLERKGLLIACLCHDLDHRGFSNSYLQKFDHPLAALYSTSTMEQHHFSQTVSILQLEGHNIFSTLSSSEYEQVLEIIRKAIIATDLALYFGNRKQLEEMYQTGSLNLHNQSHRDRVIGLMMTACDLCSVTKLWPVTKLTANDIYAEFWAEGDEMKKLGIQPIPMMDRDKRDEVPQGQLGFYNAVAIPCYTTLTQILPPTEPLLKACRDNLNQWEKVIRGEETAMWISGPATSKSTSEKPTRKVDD
# [2] = Unbound drug level in Wistar Hannover rat plasma at 10 mg/kg, po after 2 hrs by UPLC-MS analysis; assay type: ADME, organism-based; conditions: in vivo
# Rattus norvegicus [3] = experiment: Antipsychotic activity in Wistar Hannover rat assessed as reduction in MK-801-induced psychomotor activity at 3 mg/kg, po for 14 days followed by drug dosing at 3 mg/kg, po 120 mins before MK-801 challenge; assay type: functional, organism-based; conditions: time 20280.0 min
# [4] = Total drug level in Wistar Hannover rat plasma at 0.1 mg/kg, po after 2 hrs by UPLC-MS analysis; assay type: ADME, organism-based
# [5] = Unbound drug level in plasma of Wistar Hannover rat engaged in object retrieval detour task at 10 mg/kg, po dosed for 4 days prior to testing and on day 5 drug was administered orally 2 h prior to testing and measured after 4 hrs by UPLC-MS analysis; assay type: ADME, organism-based; conditions: in vivo, 120 h, time 5 day
# [6] = Clearance in orally dosed rhesus monkey after 4 hrs by UPLC-MS analysis; assay type: ADME, organism-based, Macaca mulatta; conditions: in vivo, route po
# [7] = Total drug level in Wistar Hannover rat plasma at 1 mg/kg, po after 2 hrs by UPLC-MS analysis; assay type: ADME, organism-based
# [8] = Unbound drug level in Wistar Hannover rat plasma at 30 mg/kg, po after 2 hrs by UPLC-MS analysis; assay type: ADME, organism-based; conditions: in vivo
# Rattus norvegicus [9] = experiment: Reduction in locomotor activity in Wistar Hannover rat at 1 mg/kg, po dosed 90 mins before identical objects by novel object recognition test; assay type: functional, organism-based
# Rattus norvegicus [10] = experiment: Effect on phosphorylation of proteins in other brain regions (prefrontal cortex and hippocampus) in Wistar Hannover rat at 3 to 30 mg/kg, po by Western blot analysis; assay type: functional, organism-based; conditions: dose 3-30 mg/kg
# [11] = Clearance in orally dosed dog after 2 hrs by UPLC-MS analysis; assay type: ADME, organism-based, Canis lupus familiaris; conditions: in vivo, route po
# [12] = Total drug level in plasma of Wistar Hannover rat engaged in object retrieval detour task at 3 mg/kg, po dosed for 4 days prior to testing and on day 5 drug was administered orally 2 h prior to testing and measured after 4 hrs by UPLC-MS analysis; assay type: ADME, organism-based; conditions: time 5 day
# [13] = Half life in orally dosed rat after 2 hrs by UPLC-MS analysis; assay type: ADME, organism-based; conditions: in vivo, route po
# Rattus norvegicus [14] = experiment: In-vivo increase of ERK in membrane fraction of Wistar Hannover rat striatal tissues at 30 mg/kg, po after 2 hrs by Western blot analysis relative to control; assay type: functional, organism-based; conditions: Striatum
# [15] = Total drug level in plasma of Wistar Hannover rat not-engaged in object retrieval detour task at 10 mg/kg, po dosed for 4 days prior to testing and on day 5 drug was administered orally 2 h prior to testing and measured after 4 hrs by UPLC-MS analysis; assay type: ADME, organism-based; conditions: time 5 day
# [16] = Unbound drug level in Wistar Hannover rat plasma at 0.3 mg/kg, po after 2 hrs by UPLC-MS analysis; assay type: ADME, organism-based; conditions: in vivo
# Rattus norvegicus [17] = experiment: Antipsychotic activity in Wistar Hannover rat assessed as increase in recognition at 1 mg/kg, po dosed 90 mins before identical objects by novel object recognition test; assay type: functional, organism-based
# [18] = Unbound drug level in Wistar Hannover rat plasma at 3 mg/kg, po after 2 hrs by UPLC-MS analysis; assay type: ADME, organism-based; conditions: in vivo
# [19] = Unbound drug level in plasma of Wistar Hannover rat not-engaged in object retrieval detour task at 10 mg/kg, po dosed for 4 days prior to testing and on day 5 drug was administered orally 2 h prior to testing and measured after 4 hrs by UPLC-MS analysis; assay type: ADME, organism-based; conditions: in vivo, 120 h, time 5 day
# [20] = Mean drug level in plasma of Wistar Hannover rat at 10 mg/kg, po dosed as single dose after 4 hrs by UPLC-MS analysis; assay type: ADME, organism-based
# Rattus norvegicus [21] = experiment: Antipsychotic activity in Wistar Hannover rat assessed as increase in recognition at 0.3 mg/kg, po dosed 90 mins before identical objects by novel object recognition test; assay type: functional, organism-based
# [22] = Total drug level in plasma of […] engaged in object retrieval detour task at 10 mg/kg, po dosed for 4 days prior to testing and on day 5 drug was administered orally 2 h prior to testing and measured after 4 hrs by UPLC-MS analysis; assay type: ADME, organism-based; conditions: time 5 day
# [23] = Bioavailability in orally dosed rhesus monkey after 4 hrs by UPLC-MS analysis; assay type: ADME, organism-based, Macaca mulatta; conditions: in vivo, route po
# Rattus norvegicus [24] = experiment: In-vivo increase of GluR1 S845 phosphorylation in membrane fraction of Wistar Hannover rat striatal tissues at 30 mg/kg, po after 2 hrs by Western blot analysis relative to control; assay type: functional, Striatum
# Rattus norvegicus [25] = experiment: In-vivo increase of GluR1 S845 phosphorylation in membrane fraction of Wistar Hannover rat striatal tissues at 3 to 30 mg/kg, po after 2 hrs by Western blot analysis; assay type: functional, organism-based; conditions: Striatum, dose 3-30 mg/kg
# [26] = Drug level in Wistar Hannover rat CSF at 3 mg/kg, po after 2 hrs by UPLC-MS analysis; assay type: ADME, organism-based, Cerebrospinal fluid; conditions: read-out: Drug uptake
# [27] = Total drug level in Wistar Hannover rat plasma at 10 mg/kg, po after 2 hrs by UPLC-MS analysis; assay type: ADME, organism-based
structure (smiles),measurement,setting,value
COCCOc1nc(-c2ccc(Cl)nc2)nc2c1CN(C(=O)c1ncn3ccccc13)CC2 [THPP-1],Ki,[1],1.3 nM
same,Cp(f),[2],23.8 nM
same,Activity,Rattus norvegicus [3],Active
same,concentration at 2 h,[4],32 nM
same,Cp(f),[5],19 nM
same,CL/F,[6],7.7 mL/min/kg
same,concentration at 2 h,[7],270 nM
same,Cp(f),[8],32.5 nM
same,Activity,Rattus norvegicus [9],Active
same,Activity,Rattus norvegicus [10],inactive
same,CL/F,[11],3.8 mL/min/kg
same,concentration at 120 h,[12],592 nM
same,half-life,[13],1.4 h
same,Activity,Rattus norvegicus [14],Dose-Dependent Effect
same,concentration at 120 h,[15],2820 nM
same,Cp(f),[16],2.1 nM
same,Activity,Rattus norvegicus [17],Active
same,Cp(f),[18],13.4 nM
same,Cp(f),[19],34 nM
same,concentration at 4 h,[20],1530 nM
same,Activity,Rattus norvegicus [21],Active
same,concentration at 120 h,[22],1600 nM
same,bioavailability,[23],31%
same,fold change (FC),Rattus norvegicus [24],9.5
same,Activity,Rattus norvegicus [25],Dose-Dependent Effect
same,concentration at 2 h,[26],8.3 nM
same,concentration at 2 h,[27],1320 nM
